The data set is described as follows: Aqueous solubility of torcetrapib. The following applies: aqueous environment, at about 22° C. unless otherwise specified. It counts as physicochemical. As to the method:
The CETP inhibitor may be any compound capable of inhibiting the cholesteryl ester transfer protein. The CETP inhibitor is typically “sparingly water-soluble,” which means that the CETP inhibitor has a minimum aqueous solubility of less than about 1 to 2 mg/mL at any physiologically relevant pH (e.g., pH 1-8) and at about 22° C. Many CETP inhibitors are “substantially water-insoluble,” which means that the CETP inhibitor has a minimum aqueous solubility of less than about 0.01 mg/mL (or 10 μg/mL) at any physiologically relevant pH (e.g., pH 1-8) and at about 22° C. (Unless otherwise specified, reference to aqueous solubility herein and in the claims is determined at about 22° C.) Compositions of the present invention find greater utility as the solubility of the CETP inhibitors decreases, and thus are preferred for CETP inhibitors with solubilities less than about 10 μg/mL, and even more preferred for CETP inhibitors with solubilities less than about 1 μg/mL. Many CETP inhibitors have even lower solubilities (some even less than 0.1 μg/mL), and require dramatic concentration enhancement to be sufficiently bioavailable upon oral dosing for effective plasma concentrations to be reached at practical doses. […]

Experimental findings from patent publication US20080145427A1, “Dosage Forms Providing Controlled and Immediate Release of Cholesteryl Ester Transfer Protein Inhibitors and Immediate Release of Hmg-Coa Reductase Inhibitors” (priority 2005, published 2008) are described below.

A word on the solubility: it is the concentration that dissolves in the medium under given conditions. The molecule `CCOC(=O)N1c2ccc(C(F)(F)F)cc2[C@@H](N(Cc2cc(C(F)(F)F)cc(C(F)(F)F)c2)C(=O)OC)C[C@H]1CC` [torcetrapib, [2R,4S]-4-[(3,5-bis-trifluoromethyl-benzyl)-methoxycarbonyl-amino]-2-ethyl-6-trifluoromethyl-3,4-dihydro-2H-quinoline-1-carboxylic acid ethyl ester] registered a solubility of less than 0.04 µg/mL.
